From article PMC10900488, “Synthesis and Evaluation of (Bis)benzyltetrahydroisoquinoline Alkaloids as Antiparasitic Agents” (JACS Au, 2024)

Tests used:
[1] = tested on: L. mexicana promastigotes; assay: Growth studies, 24 h promastigote culture; assay type: cell-based, Leishmania (L.) mexicana
Procedure: Preliminary investigations into the mechanism of action for compounds (S)-9a, (S)-9b and (S,R)-11 were carried out using L. mexicana promastigotes. Light microscopy-based techniques were employed to further explore compound activity in a different, related Leishmania species. […] A solvent-only control using 0.1% (v/v) DMSO led to no significant effects. Cell cultures were examined by light microscopy to identify any morphological changes resulting from compound treatment (Figure 2B). […] Cells treated with the BI and BBI compounds develop a changed morphology with a spherical cell body or shortened flagellum. This effect is observed in 25% of the population for compound (S)-9a, to a greater extent (66%) for (S)-9b, and 27% for compound (S,R)-11. An abnormal number and position of Ks and Ns were often observed, with Ks and Ns sometimes less well-defined by Hoechst 33342 staining.
(§1) NCTC cells (6 × 10^4/well) were added to a 96-well plate. Treatments of the cells with selected compounds (serially diluted 1.5 to 200 μM) was performed in a humidified incubator for 96 h at 37 °C and with 5% CO2.
(§2) The MTT colorimetric method was used to determine the 50% cytotoxic concentration (CC50) and the selectivity index (CC50 against NCTC cells/IC50 against amastigotes).15 […]
[…] […] Statistical significance was derived from a two-tailed T-test.
The Graph Pad Prism 5 software was used to perform sigmoid dose-response curves for the determination of […]
(§3) […] At 6 h and 24 h post-treatment, a 1 mL aliquot was taken for imaging. The cell cycle experiment was preformed twice independently.
(§4) Generation of mNG::RAD51 tagged cell line
(§5) The single-stranded DNA-binding protein RAD51, associated with DNA Repair, LmxM.28.0550 was tagged with endogenous fluorescent protein mNeonGreen (mNG) at the N-terminus. […]
(§6) Primers for constructs and sgRNA were designed using LeishGEdit (http://www.leishGEdit.net).
PCR was at 94 °C for 5 min, followed by 35 cycles at 94 °C (15 sec), 65 °C (15 sec), 72 °C (2 min) then finally 72 °C (1 min). […]

T. cruzi trypomastigotes = assay: Antitrypomastigote assay (T. cruzi), resazurin; assay type: cell-based, Trypanosoma (T.) cruzi; conditions: Trypanosoma cruzi, 24 h, ± SD, resazurin, read-out: T. cruzi IC50 trypomastigotes
Procedure: (§7) T. cruzi also assumes several cell morphologies during its lifecycle, which differ between the insect vector and mammalian host. In the latter environment, the parasite transitions between extracellular bloodstream trypomastigotes and intracellular amastigotes; both forms are clinically relevant, particularly during the acute stage of Chagas disease.[34] In this work, antitrypanosomal activity was tested against both the amastigote form (evaluated microscopically using an ex vivo intracellular model using mice macrophages) and the trypomastigote form (using the resazurin in vitro assay).[33],[35] […] In silico predictions of pharmacokinetic profiles were carried out using the SwissADME webtool (see the Supporting Information for details).[36] […]
(§8) […] Cultivation was performed in 2% fetal calf serum supplemented RPMI-1640 medium.
(§9) The trypomastigotes were maintained in a humidified incubator at 37 °C and with 5% CO2. […]
(§10) Biological activity assays […]
The half inhibitory concentration (IC50) was determined from a sigmoidal regression of the concentration-response curves generated in GraphPadPrism7. […]
Treatment of the cells with selected compounds (serially diluted 1.2 to 150 μM) was performed in a humidified incubator in RPMI 1640 medium for 24 h at 37 °C and with 5% CO2. Resazurin (0.011% in PBS) was added subsequently to verify parasite viability. Benznidazole was used as a standard drug. The optical density was determined at 570 nm using the FilterMax F5 (Molecular Devices). […]

T. cruzi amastigotes = assay: Antiamastigote assay (T. cruzi), ex vivo intracellular model using mice macrophages, microscopy; assay type: cell-based, Trypanosoma (T.) cruzi; conditions: Trypanosoma cruzi, Peritoneal macrophage, 48 h, ± SD, read-out: T. cruzi IC50 amastigotes
Procedure: as §7, §8, §9
Peritoneal macrophages were obtained via washing the peritoneal cavity of BALB/c mice with 10% foetal calf serum supplemented RPMI-1640 medium (pH 7.2). The macrophages were maintained in a humidified incubator at 37 °C and with 5% CO2.
as §10
Peritoneal macrophages (1 × 10^5 cells/well) obtained from the peritoneal cavity of BALB/C mice were added to 16-well chambers (NUNC, Thermo Fischer Scientific). The cells were infected with trypomastigotes (10:1 parasites/macrophage) for 2 h. Then treatment of the infected macrophages with selected compounds (serially diluted 1.2 to 100 μM) was performed in a humidified incubator for 48 h at 37 °C and with 5% CO2. The treated cells were fixed on slides using methanol, stained with Giemsa and observed under a light microscope (EVOS M5000, Thermo, USA) with digital image equipment. The infection index was used in order to determine the half inhibitory concentration (IC50) (no. infected macrophages × no. amastigotes / total no.

[2] = Mammalian toxicity, MTT colorimetric; assay type: cell-based, murine; conditions: mouse
Procedure: Table 1 depicts the antileishmanial (L. infantum) activity evaluation performed against both the amastigote form (evaluated microscopically using an ex vivo intracellular model of mice macrophages) and the promastigote one (using an MTT colorimetric method).[32],[33] The cytotoxicity was evaluated against NCTC cells using an MTT colorimetric method and the selectivity index was determined using the ratio between the CC50 values (NCTC cells) and the IC50 values (amastigotes).[32] […] With respect to the substituents on the C ring, larger, hydrophobic groups conferred greater bioactivity (e.g., 9b–d), whereas small, hydrophilic groups such as a hydroxyl group afford modest to poor bioactivity. […]
Murine conjunctive fibroblasts NCTC clone 929 (ATCC) were maintained in 10% foetal calf serum supplemented RPMI-1640 medium (pH 7.2) at 37 °C in a humidified incubator with 5% CO2. […]
as §10, §1, §2, §3, §4, §5, §6
PCR was at 94 °C for 5 min, followed by 35 cycles at 94 °C (15 sec), 65 °C (15 sec), 72 °C (2 min) then finally 72 °C (1 min).
PCR was at 94 °C for 30 sec, followed by 30 cycles at 94 °C (30 sec), 60 °C (30 sec), 72 °C (30 sec) then finally 72 °C (2 min). […] Combined PCR products were precipitated for 20 min with 10 μL 3M sodium acetate and 300 μL EtOH, pelleted at 14000 min-1 30 min, washed once with 70% EtOH, re-pelleted and resuspended in […]
Promastigotes (1 × 10^7 cells) were combined with PCR products and transfected using the Amaxa Nucleofector II.17 Electroporation was performed using 2 mm cuvettes on the X-100 program, followed by immediate suspension in pre-warmed M199 medium. Successful transfectants were selected with 20 μg mL-1 Puromycin 15 h after transfection, taking 4 days to reach stable growth in culture. mNG::RAD51 nuclear foci studies mNG::RAD51 promastigotes (5 × 10^6 cells mL-1) in 7 mL of M199 medium were treated with 7 μL o f compound (S)-9a or (S)-9b dissolved in DMSO giving a final concentration of 50 μM. Phleomycin was used as a positive control at a final concentration of 25 μg mL-1. At T = 0, 15, 30, 60 min, and 2, 6, 24 h post-treatment a 0.8 mL aliquot was taken for imaging.

SMILES | concentration sufficient to inhibit growth over 24 h [1] [µM] | IC50 (T. cruzi trypomastigotes) [µM] | IC50 (T. cruzi amastigotes) [µM] | CC50 at 96 h [2] [µM] | potency in growth inhibition relative to (S)-9a and (S)-9b [1] [fold]
COc1cc2c(cc1OC)[C@H](Cc1ccc(Br)cc1)N(C)CC2 [(S)-9a] | 50 | 14.4 ± 5.5 | 25.1 ± 3.1 | 42.5 ± 1.5 | 
COc1cc2c(cc1OC)[C@H](Cc1ccc(OC)c(OCc3ccccc3)c1)N(C)CC2 [(S)-9b] | 50 | 57.7 ± 2.3 | 12.2 ± 0.5 | 47.1 ± 11.2 | 
COc1cc2c(cc1OC)[C@@H](Cc1ccc(Oc3cc(C[C@H]4c5cc(OC)c(OC)cc5CCN4C)ccc3OC)cc1)N(C)CC2 [(S,R)-11, (−)-O,O′-dimethylgrisabine] |  | 2.6 ± 2.9 | 2.2 ± 0.7 | 10.2 ± 1.4 | 10
